Tests used:
[1] = DFT calculation of C—I bond dissociation energy (B3LYP/6-31G(d,p)/MIDI!, Gaussian 03); conditions: estimated from the DFT data, compound not covered by the calculations
Experimental: Density Functional Theory (DFT) calculations performed on a variety of model structures strongly support the novelty and uniqueness of this approach. […] Calculations were performed with the Gaussian 03 suite of programs.
Table 2 summarizes results of density functional theory calculations (B3LYP/6-31G(d,p)/MIDI!, thermal and zero point energy corrected) for compounds 1, 7, and 8, showing the dissimilar impact of ortho-chlorine substitution on the strength of the C—I bond. […] Chlorine substitution results in significant C—I bond weakening compared to iodobenzene.
Table 3 depicts the results of density functional theory calculations for compounds 1, 5, and 9-14 (B3LYP/SDD for astatobenzenes, B3LYP/6-31G(d,p)/MIDI! for the iodobenzenes, and B3LYP/6-31G(d,p) for 11-14; thermal and zero point energy corrected) showing how the effect of ortho fluorine substitution falls off as the bond strength of the C—X (where X=halogen) bond increases.
Table 4 depicts results of DFT calculations (B3LYP/6-31G(d,p)/MIDI! for compounds 15-22; thermal and zero point energy corrected) showing how the effect of ortho fluorine applies to heterocyclic systems.
Table 5 depicts results of density functional theory calculations (B3LYP/6-31G(d,p)/MIDI!; thermal and zero point energy corrected) for compounds 23-34, showing how the effect of ortho fluorine substituents applies to five-membered ring heterocycles. […]

[2] = more cytotoxic than ^123I-MIBG; cited from earlier work

| SMILES | C—I bond energy increase over the derivative in which the fluorine substituents are replaced by hydrogen atoms [1] | cytotoxicity relative to ^123I-MIBG [2] |
| --- | --- | --- |
| N[C@@H](Cc1cc(I)c(Oc2ccc(F)c(I)c2F)c(I)c1)C(=O)O | approximately 2.5 kcal/mol |  |
| N=C(N)NCc1cccc([211At])c1 [^211At-MIBG] |  | approximately 1000 times |

— patent US20140275539A1, “STABILIZATION OF RADIOIODINATED AND ASTATINATED PHARMACEUTICALS AND IMAGING AGENTS” (priority 2013, published 2014)
